# Measurements published in patent US11220527B2, “Peptides derived from the propeptide NTSR3 and their use in the treatment of depression” (CENTRE NATIONAL DE LA RECHERCHE SCIENTIFIQUE, priority 2016, dated 2022).
# “Also recorded” adds a separate entry of the source. Where a SMILES comes first, the peptide text is derived from it. The star is where a group is joined. Biotin = O=C1N[C@H]2[C@H](CS[C@H]2CCCCC(=O)*)N1
# Key:
# [1] = Learned helplessness test (LHT); assay type: in vivo; settings: mice, bolus of 100 μL of a 10^-6 M solution 30 minutes before conditioning, FIG. 4
# Experimental: Learned resignation or learned helplessness is a model based on the repeated administration of electric shocks to induce a resigned state in the animal.
# The apparatus comprises two compartments separated by a sliding door and with a floor consisting of a metal grid through which the electrical pulses are administered. The learned helplessness protocol is divided into two stages, an animal conditioning stage and a test stage.
# The conditioning was carried out over a period of four days during which time the mice received 360 non-avoidable electric shocks of 0.3 mA for one hour (the door, separating the two compartments, being closed). The shocks lasted for 2 seconds and an interval of 8 seconds was respected between each shock. This conditioning step leads to a phenomenon of helplessness in animals.
# On the day of the test, the mice were placed in the same compartments but with a possibility of escaping the shock. The test counted 30 trials. During the administration of the shock, the door separating the two compartments opened, allowing the animals to flee. When the animal changes compartment the test is finished and the shock stops. […] This test made it possible to record the escape latencies of the animals. The thirty tests were then grouped by 5 and the average escape time was calculated. […]
# [2] = tested on: BrdU-positive cells of the dentate gyrus of the hippocampus; experiment: Hippocampal neurogenesis by BrdU immunohistochemistry; assay type: in vivo; settings: mice, four days of treatment, FIG. 5
# Experimental: BrdU (5-bromo-2′-deoxyuridine) is a synthetic nucleoside analogous to thymidine. It is incorporated during DNA replication during phase S (chromosome duplication during interphase) of the cells in division. Injection of BrdU makes it possible to visualize the cells in division of the tissue to be analyzed by means of immunological labeling. In the present study, the hippocampal neurogenesis of the mice was evaluated after treatment with spadin or the different analogs.
# After the behavioral tests, the mice were injected with BrdU at a final concentration of 120 mg/kg intraperitoneally, according to the modified protocol of Beauquis, J. et al. (Eur J Neurosci 23, 1539-1546, 2007). Four injections of 300 μl at 10 mg/ml, spaced two hours apart, were performed. 24 hours after the injections, the mice were anesthetized with pentobarbital (100 mg/kg) and then perfused intracardially. During the intracardiac perfusion, physiological saline was administered to remove all blood from the body of the mice, and then 4% paraformaldehyde (PFA) was perfused to fix the organs. Post-fixation in 4% PFA was also performed overnight. The brains of the mice were cut with a vibratome (Leica), which allowed 40 μm floating frontal sections to be obtained. The sections selected for the immunological reaction were those ranging from bregma 3.3 to 5.3. Eight sections were selected with a regular spacing, allowing the entire hippocampus to be covered while remaining homogeneous from one brain to another.
# The immunological reaction was performed by incubating an anti-BrdU primary antibody (BD Pharmingen, 1/8000), with the brain sections, overnight at 4° C. The brain sections were then washed in PBS (Phosphate Buffered Saline) and incubated for two hours with the secondary antibody (biotinylated goat anti-mouse antibody, Vector laboratories, 1/400). […]
# The sections were then mounted on slides and fixed with Entellan. BrdU-positive cells of the dentate gyrus of the hippocampus were counted in both hemispheres of each brain. […]
# [3] = tested on: PSD-95 protein; experiment: Synaptogenesis: PSD-95 expression in cortical neurons by Western blot; assay type: cell-based, mouse C57BI/6J; settings: 1 μM, 0-36 hours, normalized to ß-actin, FIG. 6
# Experimental: Pregnant female C57BI/6J mice (20-25 g, Janvier Labs, St Berthevin, France) were anesthetized by inhalation of 2% isoflurane mixed with 30% oxygen and 70% nitrous oxide, and then sacrificed. The embryos (E14) were removed and the cerebral cortex was dissected in PBS containing 1% glucose. Neurons were prepared from cerebral cortex by mechanical dissociation, as described in Brewer and Torricelli, 2007 [26]. The dissociated neurons were distributed in poly-L-lysine treated plates and cultured for up to 10 days in neurobasal medium containing 2% B27 (Invitrogen, Fisher Scientific, Illkirch, France) and 50 μg/ml gentamycin (Sigma France), at 37° C. under 5% CO2. […]
# Cortical neurons treated with peptides G/A-PE(22-28) and biotinylated G/A-PE(22-28) for different durations (0, 5, 8, 24 and 36 hours) were homogenized in Laemmli buffer and analyzed using 10% SDS-Page gels. […] The ß-actin contents were determined after extraction using a 1/5000 dilution of anti-β-actin antibodies (Santa Cruz mouse monoclonal antibody, dilution 1/5000). […] The proteins were detected with ECL Plus detection reagents (Amersham Biosciences) using the LAS-3000 imaging system (Fujifilm, Düsseldorf, Germany). The relative intensities of each labeled band were analyzed by densitometric scanning using ImageJ software (Wayne Rasband, National Institute of Health, Bethesda, Md., USA). […]
# [4] = molecular target: T1, TREK-1 channels expressed on the ßTC3 cells (Mus musculus, UniProt P97438); experiment: Whole-cell patch clamp, I=f(V), on ßTC3 cells activated with arachidonic acid; assay type: cell-based; settings: previously activated with arachidonic acid, FIG. 7A
# T1 construct: TREK-1 channels are present on the surface of beta-pancreatic cells such as beta-TC3 cells; endogenous in cells; host or cells: ßTC3 cells
# T1 sequence (P97438 1-426): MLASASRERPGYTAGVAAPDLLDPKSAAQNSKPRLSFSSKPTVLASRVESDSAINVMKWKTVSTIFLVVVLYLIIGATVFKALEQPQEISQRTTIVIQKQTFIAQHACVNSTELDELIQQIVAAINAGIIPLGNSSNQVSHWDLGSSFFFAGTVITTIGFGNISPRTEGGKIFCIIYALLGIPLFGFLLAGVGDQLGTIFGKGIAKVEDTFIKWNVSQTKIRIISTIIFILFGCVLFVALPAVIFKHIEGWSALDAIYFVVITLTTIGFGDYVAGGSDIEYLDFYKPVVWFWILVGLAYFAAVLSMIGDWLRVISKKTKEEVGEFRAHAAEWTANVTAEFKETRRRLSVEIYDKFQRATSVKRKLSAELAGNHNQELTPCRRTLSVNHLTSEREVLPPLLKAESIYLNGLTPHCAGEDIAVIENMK
# Experimental: (§1) All experiments measuring the effect of spadin analogs and spadin were performed on ßTC3 or LNCaP or HEK293 cells stably transfected with the TREK-1 channel, hTREK-1/HEK293. The hTREK-1/HEK293 cell line was prepared in the laboratory. These cells also express a reporter gene: E-Green Fluorescent Protein (EGFP) enabling their visualization.
# The ßTC3 cells were cultured in RPMI 1640 medium supplemented with 2.5% FCS, 50 μM beta-mercaptoethanol, 10 mM HEPES, 1 mM sodium pyruvate, 50 μg/ml gentamycin and 1% of a streptomycin+penicillin mixture, at 37° C. in the presence of 5% CO2.
# The LNCaP cells were cultured in DMEM medium (Gibco)/10% fetal calf serum (FCS, ICN)/1% streptomycin+penicillin mixture (Gibco)/1% glutamax (Gibco)/at 37° C. in the presence of 5% CO2. […] From day 2 to day 4, the cells were measured by electrophysiological methods.
# (§2) All measurements were made at room temperature, i.e. at 21-22° C. The hTREK-1/HEK293 cells were identified by the fluorescence emitted by EGFP after excitation at 480 nm. […]
# The cell culture medium was replaced with a solution 150 mM NaCl, 5 mM KCl, 3 mM MgCl2, 1 mM CaCl2, 10 mM HEPES/NaOH pH 7.4 containing 10 mM tetraethylammonium chloride, 3 mM 4-aminopyridine. […] The resting potential of the membrane of the measured cell was set at −80 mV. […]
# [5] = molecular target: T2, TREK-1 channels expressed on the LNCaP cells (Homo sapiens, UniProt O95069); experiment: Whole-cell patch clamp, I=f(V), on LNCaP cells activated with arachidonic acid; assay type: cell-based; settings: previously activated with arachidonic acid, FIG. 7B
# T2 construct: TREK-1 channels are also present on the surface of cancer cells such as LNCaP cells (prostate cancer); endogenous in cells; host or cells: LNCaP cells
# T2 sequence (O95069 1-426): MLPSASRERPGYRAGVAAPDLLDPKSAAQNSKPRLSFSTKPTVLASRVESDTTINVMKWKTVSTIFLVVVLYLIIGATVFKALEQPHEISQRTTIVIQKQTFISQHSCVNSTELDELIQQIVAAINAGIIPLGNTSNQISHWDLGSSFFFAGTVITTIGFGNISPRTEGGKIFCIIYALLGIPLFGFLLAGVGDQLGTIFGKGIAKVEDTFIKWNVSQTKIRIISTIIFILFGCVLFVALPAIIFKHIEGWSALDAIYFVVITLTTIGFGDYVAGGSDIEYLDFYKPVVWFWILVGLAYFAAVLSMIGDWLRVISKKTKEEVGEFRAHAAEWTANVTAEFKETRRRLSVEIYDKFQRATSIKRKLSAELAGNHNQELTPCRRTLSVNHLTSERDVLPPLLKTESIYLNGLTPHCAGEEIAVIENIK
# Experimental: as §1
# The LNCaP cells were cultured in DMEM medium (Gibco)/10% fetal calf serum (FCS, ICN)/1% streptomycin+penicillin mixture (Gibco)/1% glutamax (Gibco)/at 37° C. in the presence of 5% CO2. At day 1, the hTREK-1/HEK293 or BTC3 or LNCaP cells were seeded at 20,000 cells per 35 mm diameter dish containing 2 ml of culture medium. From day 2 to day 4, the cells were measured by electrophysiological methods.
# as §2
# The cell culture medium was replaced with a solution 150 mM NaCl, 5 mM KCl, 3 mM MgCl2, 1 mM CaCl2, 10 mM HEPES/NaOH pH 7.4 containing 10 mM tetraethylammonium chloride, 3 mM 4-aminopyridine. […] The resting potential of the membrane of the measured cell was set at −80 mV.
# The voltage variations were obtained either by continuous ramp (from −100 to +60 mV) or by a potential jump of 10 mV (from −100 to +60 mV, 1.5 seconds per jump). The data obtained were analyzed with the Pclamp software. […]
# [6] = tested on: LNCaP cells; experiment: Growth of LNCaP cells by counting the cells in culture; assay type: cell-based; settings: cell count after 24 or 48 h, FIG. 7C
# [7] = molecular target: T3, TREK-1 channel (Homo sapiens, UniProt O95069); settings: previously shown; cited from earlier work
# T3 sequence (O95069 1-426): T2 sequence (O95069 1-426)
compound,measurement,setting,value
CC(C)C[C@H](NC(=O)CNC(=O)[C@H](Cc1c[nH]c2ccccc12)NC(=O)[C@H](CO)NC(=O)[C@@H](NC(=O)[C@H](C)NC(=O)CCCC[C@@H]1SC[C@@H]2NC(=O)N[C@@H]21)C(C)C)C(=O)N[C@@H](CCCNC(=N)N)C(=O)O [biotinylated G/A-PE(22-28)] (Biotin-AVSWGLR-OH; N-terminus and C-terminus assumed),escape latencies in the learned helplessness test,[1],capable of reducing the escape latencies
same,neurogenesis (BrdU-positive cells of the hippocampus),[2],increase neurogenesis more strongly than peptide PE(22-28); also recorded: capable of inducing an increase in neurogenesis
same,PSD-95 synaptic protein expression (synaptogenesis),[3],increased PSD-95 synaptic protein expression
"GVSWGLR (Peptide PE(22-28)) [base peptide derived from the propeptide, used for design of other peptides]",blocking of arachidonic acid (aa) activated TREK-1 / potassium currents on ßTC3 cells,[4],blocks arachidonic acid (aa) sensitive potassium currents
same,blocking of arachidonic acid (aa) activated TREK-1 / potassium currents on LNCaP cells,[5],blocks arachidonic acid (aa) sensitive potassium currents; also recorded: capable of blocking the TREK-1 channels
same,growth of LNCaP cells,[6],inhibits their growth; also recorded: capable of inhibiting the cell growth
QDRLDAPPPPAAPLPRWSGPIGVSWGLRAAAAGGAFPRGGRWRR (Propeptide PE),blocking of TREK-1 channel activity,[7],able to block the activity of the TREK-1 channel
